Source: patent publication US6852327B1, “Composition attracting insects pertaining to the coleoptera family and use thereof in the control of plagues in palm-trees and related plants” (Instituto Nacional de Investigacion y Tecnologia Agraria y …, priority 1998, dated 2005)

Test system: Rhynchophorus palmarum
Assay: Field trapping study of Rhynchophorus palmarum control in palm tree groves (baited traps, 1 month, French Guiana)
Type: in vivo
Settings: second (last) Total capture column; period not printed separately (study dates March-May 1997); total insects in all traps with the same test substance
Source text: Study of Rhynchophorus palmarum Control in Palm Tree Groves
This experiment was designed to assess the control of Rhynchophorus palmarum control in ornamental, palm trees and in coconut palms according to the characteristics indicated hereunder.
Insect species against which the experiment was designed: Rhynchophorus palmarum, Coleoptera curculionidae, Rhynchophorinae.
Testing area: Cayenne—Remire Montjoly, French Guiana.
Plants: Ornamental palm tree groves and coconut palms.
Substances tested: • (a) Vegetal bait (sugar cane in 25 cm lengths cut lengthwise through the middle and fermented during 24 hours at 28° C., and Rhynchophorol (synthetic feromone) • (b) INIA 1 composition and Rhynchophorol. • (c) INIA 2 composition and Rhynchophorol. • (c) INIA 3 composition and Rhynchophorol. • (e) Reference specimen (only Rhynchophorol).
A randomly selected “double blind” test was repeated 4 times in traps installed over trash cans modified to include spreaders comprising a supporting agent capable of absorbing/adsorbing and releasing the compositions to be tested and designed to emit said compositions.
The vegetal bait, namely cut-up cane, was arranged in a bundle on the bottom of the trap can. Feromone (Rhynchophorol) was released from small hermetic plastic 200 μm envelopes loaded with 0.2 cm^3 of synthetic feromone spreading a minimum of 2 mg/day through pores in the trap. […]

For C/C=C/C(O)CC(C)C (stereo not shown) [(e), Rhynchophorol], the Total capture was 3.
